Legend:
S. aureus Newman [1] = assay: fitness (endpoint OD595 vs no drug) (fraction); higher = more growth
Method in brief: (§1)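 With the first reading as background, OD595 was measured every 30 min for 14 h in 384-well plates kept at 37 °C and inoculated at OD595 0.01. TSB, LB Lennox or CY was the medium. Fitness is the optical density at the transition into stationary phase divided by the robust mean of no-drug control wells, with a cap of 1.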

S. pneumoniae D39V [2] = assay: as above
Method in brief: as §1

B. subtilis 168 = assay: Bliss interaction score (quartile over a dose matrix) (fitness difference); higher = more antagonism (negative = synergy)
Method in brief: (§2)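 Fitness was defined as normalised growth: OD595 at the start of stationary phase divided by the plate's robust no-drug mean and capped at 1. Single-drug fitness was inferred from combination measurements. The Bliss score is observed fitness minus the product of the single-drug values, summarised by quartiles across technical, biological and donor/recipient replicates.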

S. aureus DSM 20231 = assay: as above
Method in brief: as §2

S. aureus Newman [3] = assay: as above
Method in brief: as §2

S. pneumoniae D39V [4] = assay: as above
Method in brief: as §2
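For Bliss interaction score (quartile over a dose matrix) in this document: first quartile when negative (synergy) and third quartile when positive (antagonism).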
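For fitness (endpoint OD595 vs no drug) in this document: OD595 on entry to stationary phase over no-drug wells; at most 1.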

CO/N=C(\C(=O)N[C@@H]1C(=O)N2C(C(=O)O)=C(COC(C)=O)CS[C@H]12)c1csc(N)n1 [Cefotaxime] + C/C(=C\C(=O)OCCCCCCCCC(=O)O)C[C@@H]1OC[C@H](C[C@@H]2O[C@H]2[C@@H](C)[C@H](C)O)[C@@H](O)[C@H]1O [Pseudomonic acid]
fitness, S. aureus Newman [1], one replicate
Settings | first compound 0.078 µg/mL | first compound 0.156 µg/mL | first compound 0.312 µg/mL
partner 0.0313 µg/mL | 0.054 | 0.0458 | 0.0509
partner 0.0625 µg/mL | 0.0409 | 0.0394 | 0.0414
partner 0.125 µg/mL | 0.0477 | 0.0707 | 0.0616

fitness, S. pneumoniae D39V [2]
Settings | first compound 0.0018 µg/mL | first compound 0.0035 µg/mL | first compound 0.007 µg/mL
partner 0.03 µg/mL | 0.978 | 0.962 | 0.962
partner 0.06 µg/mL | 0.833 | 0.862 | 0.809
partner 0.12 µg/mL | 0.551 | 0.56 | 0.517

Settings | Bliss interaction score
B. subtilis 168 | 0.0549
S. aureus DSM 20231 | 0.0223
S. aureus Newman [3] | 0.022
S. pneumoniae D39V [4] | 0.0643

O=C(O)c1cn(C2CC2)c2cc(N3CCNCC3)c(F)cc2c1=O [Ciprofloxacin] + Cn1nnc(-c2ccc(-c3ccc(N4C[C@H](CO)OC4=O)cc3F)cn2)n1 [Tedizolid]
fitness
Settings | partner 0.03125 µg/mL | partner 0.0625 µg/mL | partner 0.125 µg/mL | partner 0.25 µg/mL | partner 0.5 µg/mL
S. aureus Newman [1], first compound 0.0375 µg/mL | – | – | 0.633 | – | –
S. aureus Newman [1], first compound 0.075 µg/mL | – | 0.56 | 0.592 | 0.423 | –
S. aureus Newman [1], first compound 0.15 µg/mL | – | – | – | 0.13 | –
S. pneumoniae D39V [2], first compound 0.125 µg/mL | 0.935 | 0.95 | 0.771 | 0.331 | 0.102
S. pneumoniae D39V [2], first compound 0.25 µg/mL | 0.913 | 0.945 | 0.703 | – | –
S. pneumoniae D39V [2], first compound 0.5 µg/mL | 0.828 | 0.889 | – | 0.292 | 0.0949

S. pneumoniae D39V [2], first compound 0.25 µg/mL, one replicate
Settings | fitness
partner 0.25 µg/mL | 0.257
partner 0.5 µg/mL | 0.0574

Settings | Bliss interaction score
B. subtilis 168 | 0.26
S. aureus DSM 20231 | 0.0744
S. aureus Newman [3] | 0.0978
S. pneumoniae D39V [4] | -0.0691

CN(C)c1cc(NC(=O)CNC(C)(C)C)c(O)c2c1C[C@H]1C[C@H]3[C@H](N(C)C)C(O)=C(C(N)=O)C(=O)[C@@]3(O)C(O)=C1C2=O [Tigecycline] + CN[C@H](CC(C)C)C(=O)N[C@H]1C(=O)N[C@@H](CC(N)=O)C(=O)N[C@H]2C(=O)N[C@H]3C(=O)N[C@H](C(=O)N[C@H](C(=O)O)c4cc(O)cc(O)c4-c4cc3ccc4O)[C@H](O)c3ccc(c(Cl)c3)Oc3cc2cc(c3O[C@@H]2O[C@H](CO)[C@@H](O)[C@H](O)[C@H]2O[C@H]2C[C@](C)(N)[C@H](O)[C@H](C)O2)Oc2ccc(cc2Cl)[C@H]1O [Vancomycin]
Settings | fitness
S. aureus Newman [1], first compound 0.039 µg/mL, partner 0.1875 µg/mL | 0.974
S. aureus Newman [1], first compound 0.039 µg/mL, partner 0.375 µg/mL | 0.998
S. aureus Newman [1], first compound 0.039 µg/mL, partner 0.75 µg/mL | ≥ 1
S. aureus Newman [1], first compound 0.078 µg/mL, partner 0.1875 µg/mL | ≥ 1
S. aureus Newman [1], first compound 0.078 µg/mL, partner 0.375 µg/mL | 0.99
S. aureus Newman [1], first compound 0.078 µg/mL, partner 0.75 µg/mL | 0.987
S. aureus Newman [1], first compound 0.156 µg/mL, partner 0.1875 µg/mL | 0.992
S. aureus Newman [1], first compound 0.156 µg/mL, partner 0.375 µg/mL | ≥ 1
S. aureus Newman [1], first compound 0.156 µg/mL, partner 0.75 µg/mL | 0.987
S. pneumoniae D39V [2], first compound 0.65 µg/mL, partner 0.03125 µg/mL | 0.967
S. pneumoniae D39V [2], first compound 0.65 µg/mL, partner 0.0625 µg/mL | 0.939
S. pneumoniae D39V [2], first compound 0.65 µg/mL, partner 0.125 µg/mL | 0.871
S. pneumoniae D39V [2], first compound 0.65 µg/mL, partner 0.5 µg/mL | 0.0606
S. pneumoniae D39V [2], first compound 1.3 µg/mL, partner 0.03125 µg/mL | 0.989
S. pneumoniae D39V [2], first compound 1.3 µg/mL, partner 0.0625 µg/mL | 0.937
S. pneumoniae D39V [2], first compound 1.3 µg/mL, partner 0.125 µg/mL | 0.882
S. pneumoniae D39V [2], first compound 1.3 µg/mL, partner 0.5 µg/mL | 0.0528
S. pneumoniae D39V [2], first compound 2.6 µg/mL, partner 0.03125 µg/mL | 0.961
S. pneumoniae D39V [2], first compound 2.6 µg/mL, partner 0.0625 µg/mL | 0.962
S. pneumoniae D39V [2], first compound 2.6 µg/mL, partner 0.125 µg/mL | 0.918
S. pneumoniae D39V [2], first compound 2.6 µg/mL, partner 0.25 µg/mL | 0.543
S. pneumoniae D39V [2], first compound 2.6 µg/mL, partner 0.5 µg/mL | 0.0988

Settings | Bliss interaction score
B. subtilis 168 | 0.0787
S. aureus DSM 20231 | 0.0923
S. aureus Newman [3] | 0.0428
S. pneumoniae D39V [4] | 0.0783

O=C(O)c1cn(C2CC2)c2cc(N3CCNCC3)c(F)cc2c1=O [Ciprofloxacin] + CCCCCCCCCC(=O)N[C@@H]1[C@H]([C@@H]([C@H](O[C@H]1OC2=C3C=C4C=C2OC5=C(C=C(C=C5)[C@H]([C@H]6C(=O)N[C@@H](C7=C(C(=CC(=C7)O)OC8[C@H]([C@H]([C@@H]([C@H](O8)CO)O)O)O)C9=C(C=CC(=C9)[C@H](C(=O)N6)NC(=O)[C@@H]4NC(=O)[C@@H]1C2=CC(=CC(=C2)OC2=C(C=CC(=C2)[C@H](C(=O)N[C@H](CC2=CC(=C(O3)C=C2)Cl)C(=O)N1)N)O)O)O)C(=O)O)O[C@H]1[C@@H]([C@H]([C@@H]([C@H](O1)CO)O)O)NC(=O)C)Cl)CO)O)O [Teicoplanin]
fitness, S. aureus Newman [1], main component drawn
Settings | first compound 0.0375 µg/mL | first compound 0.075 µg/mL | first compound 0.15 µg/mL
partner 0.1562 µg/mL | 0.681 | 0.629 | 0.0421
partner 0.3125 µg/mL | 0.713 | 0.626 | 0.0116
partner 0.625 µg/mL | 0.608 | 0.534 | 0.0117

fitness, S. aureus Newman [1], one replicate, main component drawn
Settings | first compound 0.078 µg/mL | first compound 0.156 µg/mL | first compound 0.312 µg/mL
partner 0.62 µg/mL | 0.535 | 0.0341 | 0.036
partner 1.24 µg/mL | 0.372 | 0.0368 | 0.0337
partner 2.48 µg/mL | 0.0816 | 0.0702 | 0.0565

main component drawn
Settings | Bliss interaction score
B. subtilis 168 | -0.1
S. aureus DSM 20231 | 0.0835
S. aureus Newman [3] | -0.0935
S. pneumoniae D39V [4] | -0.063

C[C@@H]1O[C@@H]1P(=O)(O)O [Fosfomycin] + C/C(=C\C(=O)OCCCCCCCCC(=O)O)C[C@@H]1OC[C@H](C[C@@H]2O[C@H]2[C@@H](C)[C@H](C)O)[C@@H](O)[C@H]1O [Pseudomonic acid]
fitness, S. aureus Newman [1], one replicate
Settings | first compound 0.781 µg/mL | first compound 1.562 µg/mL | first compound 3.124 µg/mL
partner 0.0313 µg/mL | 0.0359 | 0.0031 | 0.0112
partner 0.0625 µg/mL | 0.0247 | 0.0394 | 0.0147
partner 0.125 µg/mL | 0.0275 | 0.0351 | 0.0342

fitness, S. pneumoniae D39V [2]
Settings | first compound 1.25 µg/mL | first compound 2.5 µg/mL | first compound 5 µg/mL
partner 0.03 µg/mL | 0.928 | 0.937 | 0.868
partner 0.06 µg/mL | 0.803 | 0.882 | –
partner 0.12 µg/mL | 0.531 | 0.454 | 0.201

Settings | Bliss interaction score
B. subtilis 168 | 0.0483
S. aureus DSM 20231 | 0.0164
S. aureus Newman [3] | -0.0091
S. pneumoniae D39V [4] | -0.0714
